Data: patent publication US20230240297A1, “SELECTIVE HERBICIDES BASED ON SUBSTITUTED ISOXAZOLIN CARBOXAMIDES AND CYPROSULFAMIDE” (Bayer Aktiengesellschaft, priority 2020, published 2023)

Tests used:
Format in all cases: in vivo, maize
[1] = test system: ZEAMA Sileno; experiment: Tank-mix; post-emergence, crop damage with and without safener; settings: for HER effect + SAF / HER effect: Final assessment; for HER effect: no safener
Summary of the method: (§1)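 Crops in sandy loam in the greenhouse were sprayed at the 1–3-leaf stage, 2–3 weeks after sowing, with herbicide/safener combinations or the single actives at various dosages in 300 l/ha water. Injury was scored visually 1–3 weeks after treatment as % versus untreated plants (0% none, 100% complete kill).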

[2] = test system: ZEAMA Sileno; experiment: Treatment 1 day before (safener applied one day before herbicide, post-emergence); parameters: key to Reduction [Difference]: percentage points of visually scored % crop damage vs untreated control; settings: for Reduction [%] / Reduction [Difference]: cyprosulfamide 100 g a.i./ha 1 day before; for HER effect + SAF: cyprosulfamide 100 g a.i./ha applied 1 day before; for HER effect + SAF / HER effect: Final assessment; for HER effect: no safener
Description: Seeds of crops (spring wheat, TRZAS; spring barley, HORVS; maize, ZEAMA) were placed in sandy loam soil in pots of a diameter of 7-8 cm, covered with soil, and cultivated in a greenhouse under good growth conditions until plants were at the 1-3 leaf stage (BBCH 11-13). For split safener and herbicide treatment, first the safener was applied followed by the herbicide treatment on the following day. The safener and herbicides were formulated as WP and sprayed onto the green parts of the plants as an aqueous suspension at an equivalent water application rate of 300 1/ha, with addition of wetting agent and adjuvants (e.g. Mero, 1.5 1/ha; ammonium sulphate, 2 kg/ha). An equivalent set of plants was treated with the herbicides but without the prior safener treatment.
(§2) After application, the test plants were kept in the greenhouse under good growth conditions. 10 and 21 days after treatment (DAT) with the herbicide, % crop damage observed on the treated plants was scored visually in comparison to control plants that had not received any safener or herbicide treatment.

[3] = test system: ZEAMA Sileno; experiment: Seed treatment with safener; pre-emergence herbicide application; settings: for Reduction [%] / Reduction [Difference]: cyprosulfamide 0.25 g a.i./kg seed; for HER effect + SAF: cyprosulfamide seed treatment 0.25 g a.i./kg seed; for HER effect: no safener
Procedure: For the safener seed treatment, sufficient seeds of the respective crops (spring wheat, TRZAS; spring barley, HORVS; maize, ZEAMA) were weighed into screw top glass bottles approximately twice the volume of the seeds.
The specified safeners, formulated as wettable powder (WP) were weighed out so that the specified rates (g a.i./kg seed) would be obtained, dissolved in water (1 ml water per 10 g of seeds), and added to the seeds to produce a slurry.
The bottles were capped and then placed in an overhead shaker (set at medium speed for ca. 60 minutes) so that the seeds were evenly coated with the slurry. The bottles were uncapped and the seeds were either placed on paper and dried for an interval of 3-4 hours prior to sowing, or directly sown. Seeds were placed in sandy loam soil in pots of a diameter of 7-8 cm, and covered with soil.
Pre-emergence application of the specified herbicides was done subsequently, on two sets of plants: • a) seed treatment with safener, as described above • b) no safener treatment
The herbicides were formulated as WP and was sprayed onto the soil surface as an aqueous suspension at an equivalent water application rate of 300 1/ha.
as §2, with “At intervals up to 4 weeks after application (=28” for “10 and 21”, “treatment; DAT),” for “treatment (DAT) with the herbicide,”
Values in the table below are mean values of at least 2 replicates.

[4] = test system: ZEAMA Sileno; experiment: Seed treatment with safener; post-emergence herbicide application; parameters: Reduction [Difference]: scale not given here; settings: Final assessment; for Reduction [%] / Reduction [Difference]: Cyprosulfamide 0.5 g a.i./kg seed; for Reduction [Difference]: damage without safener - damage with safener; for HER effect + SAF (crop damage with safener): Cyprosulfamide seed treatment 0.5 g a.i./kg seed; for HER effect (crop damage, herbicide without safener): no safener
Summary of the method: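 Maize seeds slurry-coated with WP safener (g a.i./kg seed) or left untreated, sown in sandy loam and grown in greenhouse. WP herbicide sprayed post-emergence at BBCH11-13 in 300 l/ha water with wetting agent and adjuvants (e.g. Mero 1.5 l/ha, ammonium sulphate 2 kg/ha); means of at least 2 replicates.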

[5] = test system: ZEAMA Abraxas; experiment: Tank-mix; post-emergence, crop damage with and without safener; settings: for Reduction [%] / Reduction [Difference]: cyprosulfamide 50 g a.i./ha; for HER effect + SAF / HER effect: Final assessment; for HER effect: no safener
Summary of the method: as §1

[6] = HER dose 2 g a.i./ha + cyprosulfamide 50 g a.i./ha tank-mix
[7] = HER dose 40 g a.i./ha pre-emergence, 14 DAT
[8] = HER dose 40 g a.i./ha pre-emergence, 26 DAT
[9] = HER dose 8 g a.i./ha + cyprosulfamide 50 g a.i./ha tank-mix
[10] = HER 8 g a.i./ha, cyprosulfamide 50 g a.i./ha
[11] = HER 32 g a.i./ha, cyprosulfamide 100 g a.i./ha
[12] = HER dose 80 g a.i./ha pre-emergence, 26 DAT

Structure (SMILES) | Reduction [%] ([4]; HER dose 2 g a.i./ha) | Reduction [Difference] ([4]; HER dose 2 g a.i./ha) | HER effect + SAF (crop damage with safener) ([4]; HER dose 2 g a.i./ha) | HER effect (crop damage, herbicide without safener) ([4]; HER dose 2 g a.i./ha) | Reduction [%] ([4]; HER dose 8 g a.i./ha) | Reduction [Difference] ([4]; HER dose 8 g a.i./ha) | HER effect + SAF (crop damage with safener) ([4]; HER dose 8 g a.i./ha) | HER effect (crop damage, herbicide without safener) ([4]; HER dose 8 g a.i./ha) | Reduction [%] ([4]; HER dose 32 g a.i./ha) | Reduction [Difference] ([4]; HER dose 32 g a.i./ha) | HER effect + SAF (crop damage with safener) ([4]; HER dose 32 g a.i./ha) | HER effect (crop damage, herbicide without safener) ([4]; HER dose 32 g a.i./ha) | Reduction [%] ([5]; HER 2 g a.i./ha) | Reduction [Difference] ([5]; HER 2 g a.i./ha) | HER effect + SAF [5, 6] | HER effect ([5]; HER dose 2 g a.i./ha) | Reduction [%] ([2]; HER 32 g a.i./ha) | Reduction [Difference] ([2]; HER 32 g a.i./ha) | HER effect + SAF ([2]; HER dose 32 g a.i./ha) | HER effect ([2]; HER dose 32 g a.i./ha) | also measured
C=CC1(C(=O)NC2COC(C(=O)OC)C2)CC(c2cc(F)cc(F)c2)=NO1 (mixture of isomers) [Example 1.68] | 83% | 50 | 10% | 60% | 74% | 73 | 25% | 98% | 69% | 68 | 30% | 98% |  |  |  |  |  |  |  |  | Reduction [%] ([1]; HER 2 g a.i./ha, cyprosulfamide 50 g a.i./ha): 67%; Reduction [Difference] ([1]; HER 2 g a.i./ha, cyprosulfamide 50 g a.i./ha, damage without safener - damage with safener): 40; HER effect + SAF [1, 6]: 20%; HER effect ([1]; HER dose 2 g a.i./ha, 0% = no injury, 100% = complete kill): 60%; Reduction [%] ([2]; HER 8 g a.i./ha): 69%; Reduction [Difference] ([2]; HER 8 g a.i./ha): 68; HER effect + SAF ([2]; HER dose 8 g a.i./ha): 30%; HER effect ([2]; HER dose 8 g a.i./ha): 98%; Reduction [%] ([3]; HER 40 g a.i./ha, 14 DAT): 41%; Reduction [Difference] ([3]; HER 40 g a.i./ha, 14 DAT): 38; Reduction [%] ([3]; HER 40 g a.i./ha, 26 DAT): 58%; Reduction [Difference] ([3]; HER 40 g a.i./ha, 26 DAT): 55; HER effect + SAF [3, 7]: 55%; HER effect + SAF [3, 8]: 40%; HER effect [3, 7]: 93%; HER effect [3, 8]: 95%
COC(=O)C1C=CC(NC(=O)C2(C)CC(c3cc(F)cc(F)c3)=NO2)C1 (stereo not shown) [Example 1.19] |  |  |  |  | 75% | 30 | 10% | 40% | 75% | 60 | 20% | 80% | 80% | 60 | 15% | 75% | 88% | 70 | 10% | 80% | 
COC(=O)C1C=CC(NC(=O)C2(C)CC(c3cc(F)cc(Cl)c3)=NO2)C1 (stereo not shown) [Example 1.21] |  |  |  |  |  |  |  |  | 71% | 25 | 10% | 35% |  |  |  |  | 57% | 20 | 15% | 35% | Reduction [%] ([5]; HER 8 g a.i./ha): 71%; Reduction [Difference] ([5]; HER 8 g a.i./ha): 25; HER effect + SAF [5, 9]: 10%; HER effect ([5]; HER dose 8 g a.i./ha): 35%
C=CC1(C(=O)NC2C=CC(C(=O)OC)C2)CC(c2cc(F)cc(F)c2)=NO1 (stereo not shown) [Example 1.26] |  |  |  |  | 74% | 42 | 15% | 57% | 71% | 67 | 27% | 94% |  |  |  |  |  |  |  |  | Reduction [%] [1, 10]: 70%; Reduction [Difference] [1, 10]: 40; Reduction [%] [1, 11]: 71%; Reduction [Difference] [1, 11]: 67; HER effect + SAF [1, 9]: 17%; HER effect ([1]; HER dose 8 g a.i./ha): 57%; HER effect + SAF ([1]; HER dose 32 g a.i./ha + cyprosulfamide 100 g a.i./ha tank-mix): 27%; HER effect ([1]; HER dose 32 g a.i./ha): 94%; Reduction [%] ([3]; HER 40 g a.i./ha, 26 DAT): 70%; Reduction [Difference] ([3]; HER 40 g a.i./ha, 26 DAT): 35; Reduction [%] ([3]; HER 80 g a.i./ha, 26 DAT): 57%; Reduction [Difference] ([3]; HER 80 g a.i./ha, 26 DAT): 40; HER effect + SAF [3, 8]: 15%; HER effect [3, 8]: 50%; HER effect + SAF [3, 12]: 30%; HER effect [3, 12]: 70%
CCCSCCOC(=O)C1C=CC(NC(=O)C2(C)CC(c3cc(F)cc(F)c3)=NO2)C1 (stereo not shown) [Example 1.34] | 100% | 20 | 0% | 20% | 80% | 40 | 10% | 50% | 78% | 35 | 10% | 45% | 50% | 25 | 25% | 50% | 44% | 20 | 25% | 45% | Reduction [%] ([2]; HER 8 g a.i./ha): 60%; Reduction [Difference] ([2]; HER 8 g a.i./ha): 30; HER effect + SAF ([2]; HER dose 8 g a.i./ha): 20%; HER effect ([2]; HER dose 8 g a.i./ha): 50%
CC1(C(=O)NC2C=CC(C(=O)OCCSC(F)(F)F)C2)CC(c2cc(F)cc(F)c2)=NO1 (stereo not shown) [Example 1.38] | 100% | 25 | 0% | 25% | 100% | 35 | 0% | 35% | 100% | 75 | 0% | 75% | 42% | 25 | 35% | 60% | 73% | 55 | 20% | 75% | 
